Measurements published in patent publication US20250275966A1, “GABAA RECEPTOR MODULATOR SALTS, PARTICLES, AND USES THEREOF” (Engrail Therapeutics, Inc., priority 2022, published 2025).
Structures can show the parent of a compound that is named as a salt.

Key:
[1] = Pharmacokinetic analysis of Compound 1 and its salts after oral capsule administration (Example 4); format: in vivo, cynomolgus monkeys; details: 3 male cynomolgus monkeys, single PO capsule, 30 mg/kg, plasma Compound 1
Experimental: A pharmacokinetic analysis was performed comparing administration of Compound 1 with certain salts of Compound 1 after oral (PO) administration in 3 male cynomolgus monkeys. The subjects received a single PO oral gavage of active pharmaceutical ingredient (API) (e.g., Compound 1 fumarate, Compound 1 sulfate, Compound 1 hydrochloride, Compound 1 phosphate, Compound 1 tosylate, Compound 1 malonate, Compound 1 maleate, or Compound 1 free base) in a capsule at a dose of 30 mg/kg. Following dose administration, the animals were flushed with approximately 10 milliliters of tap water to ensure all API was administered. Animals were observed twice daily and at sample collection time-points for any abnormal clinical and behavioral signs. Body weights were taken prior to dosing and weekly thereafter until study termination. Blood samples (0.5 mL) were collected pre-dose, 15 minutes, 30 minutes, and 1, 2, 4, 6, 8, 10, 12, and 24 hours post-dose. Each blood sample was collected from the monkey's femoral, saphenous or other available vein via direct venipuncture, placed into a polypropylene tube containing K2EDTA as the anticoagulant, and gently inverted several times to mix. The blood samples were kept on wet ice until centrifugation. Blood was centrifuged within 10 minutes of collection. The samples were centrifuged at a temperature of 4° C., at 3,000 g, for 5 minutes. The resulting plasma (˜0.25 mL) was divided into two equal aliquots (125 μL each) into polypropylene tubes, designated as Set A and Set B, after centrifugation. Plasma samples designated for certain metabolites (Set A) were treated with 12.5 μL of 2 M ascorbic acid (plasma: ascorbic acid=[…], v:v) prepared beforehand by combining 0.352 g of ascorbic acid into 1 mL of sterile water in a glass vial and mixing thoroughly. […] Once plasma was prepared, the samples were snap frozen on dry ice. All plasma samples were stored frozen below −70° C. until analyzed.

[2] = Intrinsic dissolution rate and solubility in 0.1 N HCl with 1% Tween 80 (USP <1087>); format: physicochemical
Experimental: The intrinsic dissolution rate was determined by forming compacted pellets of approximately 75 mg of API using a compression force of 1200 pounds of force, and each pellet (die surface area: 0.5 cm^2) was immersed into a flat bottom vessel containing 500 mL of medium (aqueous 0.1 N HCl with 1% Tween 80 (polyoxyethylene (20) sorbitan monooleate)), using a Distek 2100A dissolution bath, and Distek Circulator/heater (set to 37° C.), with a paddle speed of 100 rpm. An aliquot of the sample (1 mL) was pulled from dissolution media at 15, 30, 45, 60, 75, 90, 105, and 120 minutes, filtered, and analyzed by HPLC. The slope of the dissolution profile corresponded to an intrinsic dissolution rate of hemi-fumarate salt Form B of 6.2 μg/(min·cm^2) as compared to 8.9 μg/(min·cm^2) for Compound 1 (free base). Determination of intrinsic dissolution rate (IDR) was performed for Compound 1 and seven different salts of Compound 1 according to USP <1087> in 0.1 N hydrochloric acid with 1% Tween 80 (Polyoxyethylene […] sorbitan monooleate). Compacted pellets containing approximately 75 mg API were prepared using a compression force of 1200 pounds of force, and each pellet (die surface area: 0.5 cm^2) was immersed into a flat bottom vessel containing 500 mL of medium, using a Distek 2100A dissolution bath, and Distek Circulator/heater (set to 37° C.), with a paddle speed of 100 rpm. An aliquot of the sample (1 mL) was pulled from dissolution media at 15, 30, 45, 60, 75, 90, 105, and 120 minutes, filtered, and analyzed by HPLC. HPLC for IDR and solid-state stability analyses were conducted with an Agilent 1260 Infinity system equipped with a G1311B Quad pump, […] Autosampler, G1330B auto-sampler thermostat, G1316A Thermostatted Column Compartment with a column switch valve, and […] diode array detector.

[3] = Solid-state stability by HPLC and XRPD; format: physicochemical; details: 40° C./75% RH, after 4 weeks
Experimental: Solid-state stability of the fumarate salt of Compound 1 was assessed after storage at the following conditions for 2 and 4 weeks by HPLC and XRPD: 40° C./75% RH (opened); and 50° C./ambient RH (closed). […] Solid-state stability of Compound 1 and seven salts of Compound 1, as in Example 8, was assessed after storage at the following conditions for 2 and 4 weeks by HPLC and PXRD: 40° C./75% RH (opened); and 50° C./ambient RH (closed). HPLC for IDR and solid-state stability analyses were conducted with an Agilent 1260 Infinity system equipped with a G1311B Quad pump, […] Autosampler, G1330B auto-sampler thermostat, G1316A Thermostatted Column Compartment with a column switch valve, and […] diode array detector.

[4] = Exposure after oral dose of micronized vs non-micronized particles of Compound 1 free base (Example 3); format: in vivo; details: male Cynomolgus monkeys, QD, 300 mg/kg, plasma, Mean (n = 3)
Experimental: Exposure of Compound 1 free base following oral (PO) dose administration of 300 mg/kg/dose of micronized particles (Example 1) and 300 mg/kg/dose non-micronized particles (Example 2) were assessed in male Cynomolgus monkeys. Blood samples were collected in K2EDTA coated polypropylene tubes from the femoral vein and plasma was separated. Samples were drawn at the following time points: pre-dose, 15 min, 30 min, 1, 2, 4, 8, 10, 12, 14, 24, 30, and 48 hours post-dose. The concentrations of Compound 1 were determined by LC-MS/MS and pharmacokinetic parameters were determined using Phoenix WinNonlin v8.0) software. [table]

[5] = Oral non-human primate crossover PK study (Example 7); format: in vivo, cynomolgus monkeys; details: four male cynomolgus monkeys, single PO capsule, 34.2 mg/kg fumarate salt (M-3, N-3); for C24(h): 24 hours post-dose, 30 mg/kg free base (K-13); for AUC / Tmax: equivalent on a molar basis to 30 mg/kg free base (K-13)
From the text: An objective of this study is to determine the Pharmacokinetic (PK) profile of the Test Article following a single oral administration to four male non-human primate cynomolgus monkeys with one (1) week wash out periods.
Four male animals are used for this study, and the four study animals are used for each of three dosing phases with one-week washout periods. Food is withheld overnight prior to dose administration, and food is returned four hours post-dose administration. Water is provided ad libitum by automatic watering device. Two of the four animals are previously treated with Compound 1, and the other two are Compound 1 naive. Test Article (M-3, N-3, or K-13) are provided as capsulized powders; stored at room temperature protected from light in, for example, a polyolefin bottle.

SMILES: [2H]C([2H])([2H])C(c1cc2nnc(-c3cc(F)ccc3F)n2nc1OCc1ncnn1C)(C([2H])([2H])[2H])C([2H])([2H])[2H] [Hydrochloride Salt, 3-(2,5-difluorophenyl)-7-[1,1-di(methyl-d3)ethyl-2,2,2-d3]-6-[(1-methyl-1H-1,2,4-triazol-5-yl)methoxy]-1,2,4-triazolo[4,3-b]pyridazine]
- AUClast [1]: 25402 ng·h/mL
- Cmax [1]: 1583 ng/mL
- Tmax [1]: 4.0 h
- Solubility, time point 15 min ([2]; 0.1 N HCl with 1% Tween 80, 37° C., 500 mL, pellet about 75 mg, 15 min): 0.452 µg/mL
- Solubility, time point 120 min ([2]; 0.1 N HCl with 1% Tween 80, 37° C., 500 mL, pellet about 75 mg, 120 min): 1.13 µg/mL
- Intrinsic Dissolution Rate IDR ([2]; 0.1 N HCl with 1% Tween 80, 37° C., paddle 100 rpm, die surface 0.5 cm^2, listed as HCl Salt): 6.9 μg/(min · cm^2)
- solubility at 30 min ([2]; 0.1 N HCl with 1% Tween 80, 37 °C, aqueous with cosolvent or surfactant or cyclodextrin, 500 mL, pellet about 75 mg, 30 min, read-out: Solubility, time point 30 min): 0.358 µg/mL
- solubility at 45 min ([2]; 0.1 N HCl with 1% Tween 80, 37 °C, aqueous with cosolvent or surfactant or cyclodextrin, 500 mL, pellet about 75 mg, 45 min, read-out: Solubility, time point 45 min): 0.561 µg/mL
- solubility at 60 min ([2]; 0.1 N HCl with 1% Tween 80, 37 °C, aqueous with cosolvent or surfactant or cyclodextrin, 500 mL, pellet about 75 mg, 60 min, read-out: Solubility, time point 60 min): 0.59 µg/mL
- solubility at 75 min ([2]; 0.1 N HCl with 1% Tween 80, 37 °C, aqueous with cosolvent or surfactant or cyclodextrin, 500 mL, pellet about 75 mg, 75 min, read-out: Solubility, time point 75 min): 0.723 µg/mL
- solubility at 90 min ([2]; 0.1 N HCl with 1% Tween 80, 37 °C, aqueous with cosolvent or surfactant or cyclodextrin, 500 mL, pellet about 75 mg, 90 min, read-out: Solubility, time point 90 min): 0.847 µg/mL
- solubility at 105 min ([2]; 0.1 N HCl with 1% Tween 80, 37 °C, aqueous with cosolvent or surfactant or cyclodextrin, 500 mL, pellet about 75 mg, 105 min, read-out: Solubility, time point 105 min): 0.989 µg/mL
- solubility ([2]; 0.1 N HCl with 1% Tween 80, 37 °C, aqueous with cosolvent or surfactant or cyclodextrin, sum of the 15-120 min time points, read-out: Solubility, Cumulative): 5.65 µg/mL
- Solid-state stability, XRPD pattern [3]: small signal at 10° 2θ of Compound 1 (free base)

SMILES: [2H]C([2H])([2H])C(c1cc2nnc(-c3cc(F)ccc3F)n2nc1OCc1ncnn1C)(C([2H])([2H])[2H])C([2H])([2H])[2H] [non-micronized, 3-(2,5-difluorophenyl)-7-[1,1-di(methyl-d3)ethyl-2,2,2-d3]-6-[(1-methyl-1H-1,2,4-triazol-5-yl)methoxy]-1,2,4-triazolo[4,3-b]pyridazine]
- AUClast [4]: 89225 ± 104664 ng·h/mL
- AUClast/Dose [4]: 297 ± 349 kg·ng·h/mL/mg
- AUC∞ [4]: 98365 ± 119106 ng·h/mL
- AUC∞/Dose [4]: 328 ± 397 kg·ng·h/mL/mg
- Cmax [4]: 5373 ± 4112 ng/mL
- Tmax [4]: 3.30 ± 1.20 h

SMILES: [2H]C([2H])([2H])C(c1cc2nnc(-c3cc(F)ccc3F)n2nc1OCc1ncnn1C)(C([2H])([2H])[2H])C([2H])([2H])[2H] [Compound K-13, 3-(2,5-difluorophenyl)-7-[1,1-di(methyl-d3)ethyl-2,2,2-d3]-6-[(1-methyl-1H-1,2,4-triazol-5-yl)methoxy]-1,2,4-triazolo[4,3-b]pyridazine]
- C24(h) [5]: 42 ng·mL
- AUC [5]: 1192 ng·h/mL
- Tmax [5]: 14 h

SMILES: [2H]C([2H])([2H])C(c1cc2nnc(-c3cc(F)ccc3F)n2nc1OCc1ncnn1C)(C([2H])([2H])[2H])C([2H])([2H])[2H] [Compound M-3]
- C24(h) [5]: 603 ng·mL
- AUC [5]: 17826 ng·h/mL
- Tmax [5]: 10 h

SMILES: [2H]C([2H])([2H])C(c1cc2nnc(-c3cc(F)ccc3F)n2nc1OCc1ncnn1C)(C([2H])([2H])[2H])C([2H])([2H])[2H] [micronized, 3-(2,5-difluorophenyl)-7-[1,1-di(methyl-d3)ethyl-2,2,2-d3]-6-[(1-methyl-1H-1,2,4-triazol-5-yl)methoxy]-1,2,4-triazolo[4,3-b]pyridazine]
- AUClast/Dose [4]: 530 ± 537 kg·ng·h/mL/mg
- AUC∞/Dose [4]: 650 ± 730 kg·ng·h/mL/mg
- AUC(0-inf) ([4]; male, cynomolgus monkey, po): 195000 ± 219000 ng·h/mL
- AUC(0-t) ([4]; male, cynomolgus monkey, po): 159000 ± 161000 ng·h/mL
- Cmax ([4]; male, cynomolgus monkey, po, read-out: Cmax): 6900 ± 5500 ng/mL
- Tmax ([4]; male, cynomolgus monkey, po, read-out: Tmax): 4 ± 3.5 h

SMILES: [2H]C([2H])([2H])C(c1cc2nnc(-c3cc(F)ccc3F)n2nc1OCc1ncnn1C)(C([2H])([2H])[2H])C([2H])([2H])[2H] [Compound N-3]
- C24(h) [5]: 684 ng·mL
- AUC [5]: 21540 ng·h/mL
- Tmax [5]: 4 h
